# According to article PMC11783601, “Analogue-Sensitive Inhibition of Histone Demethylases Uncovers Member-Specific Function in Ribosomal Protein Synthesis” (Journal of the American Chemical Society, 2025):
# Entries after “also recorded” stand apart in the source; their conditions may differ.
# Target: T1, wild type KDM4A (Homo sapiens, UniProt O75164)
# T1 construct: human KDM4A-jmjC domain (catalytic domain of KDM4A); 6xHis (N); host or cells: E. coli BL21 (DE3)
# T1 sequence (O75164 142-308 limits assumed): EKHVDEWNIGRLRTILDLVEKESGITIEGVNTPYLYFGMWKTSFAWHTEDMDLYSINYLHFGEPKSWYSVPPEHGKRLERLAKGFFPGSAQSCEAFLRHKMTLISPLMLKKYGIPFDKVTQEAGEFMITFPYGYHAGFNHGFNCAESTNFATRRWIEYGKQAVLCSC
# Experiment: MALDI-MS end-point demethylase assay on H3K9me3 peptide
# Format: biochemical
# Description: To develop an appropriate inhibitor, we selected N-oxalyl glycine (NOG, 2) scaffold because of its structural similarity with 2OG and the ability to inhibit 2OG-utilizing enzymes including KDMs (Figure 1C).[29]−[31] Substituting −CH2– at C3 of 2OG with −NH– in NOG prevents its oxidative decarboxylation by KDMs, making the inhibitor cofactor-competitive. […] We synthesized a panel of eight NOG analogues (3–10), derived from L-amino acids, carrying varied steric substituents at C4, with the reasoning that a bulky substituent at C4 would selectively fit into the expanded pocket of F185A over wild type KDM4A (Figures 2B and S1–S6, Schemes S1 and S2). The inhibitory effect of each compound was determined based on the extent of enzyme-catalyzed demethylation of a canonical peptide substrate corresponding to the N-terminus of histone 3 carrying trimethylated lysine at position 9 (H3K9me3). […] Such orthogonal inhibition of the engineered demethylase constitutes a powerful chemical probe to study the functions of a specific member of an enzyme family without issues of off-target activity.
# assay (Biorad) kit with BSA concentrations as a standard. […]
# 8. […]
# 2 mM L-ascorbic acid with a total assay volume of 10 µL. Fe(II) supplement and L-ascorbic acid
# Lastly, the 2OG and peptide were
# positive mode and analyzed on Bruker FlexAnalysis software. The percent demethylated peptide
# the multiple demethylation events on the peptide. […]
compound,measurement,setting,value
"CC(C)CC(NC(=O)C(=O)O)C(=O)O (centres unmarked) [compound 6, N-oxalyl leucine]",inhibition of wild type KDM4A demethylase activity (MALDI-MS),"H3K9me3 peptide, 200 µM 2OG, fixed concentration of NOG analogue",without affecting
same,dose-dependent inhibition of wild type KDM4A,up to 500 μM,no inhibitory effect; also recorded: does not inhibit
